Reference: patent publication US6844353B2, “Fungicidal properties of sampangine and its analogs to agriculturally important fungal plant pathogens” (The United States of America as represented by the …, priority 2003, dated 2005)
Where two headings read alike, the source gives them in different places.

Key:
Assay in all cases: 96-well microtiter plate assay, fungal growth inhibition
[1] = system: C. acutatum; format: cell-based, Colletotrichum acutatum; conditions: for inhibition at 0.3 µM / inhibition at 3 µM / inhibition at 30 µM: Colletotrichum acutatum, read-out: Percent inhibition−Percent Stimulation±SEM; for Percent inhibition−Percent Stimulation±SEM: C. acutatum
Description: (§1) Pathogen production. Isolates of Colletotrichum acutatum Simmonds, Colletotrichum fragariae Brooks, and Colletotrichum gloeosporioides (Penz.) Penz. & Sacc. in Penz. were obtained from B. J. Smith, USDA, ARS, Small Fruit Research Station, Poplarville, Miss. Colletotrichum fragariae (isolate CF63), C. acutatum (isolate CAGoff), and C. gloeosporioides (isolate CG162) were used for all pathogen and bioautography studies. Isolate CF63 is one of the most virulent isolates at infecting strawberry plants and inducing both crown and fruit rot (Smith and Black, 1990). CF63, CAGoff, and CG162 were used as standard test isolates because of our extensive knowledge of these isolates and their known fungicide sensitivity profiles in both bioautography and microtiter formats. The three Colletotrichum species were isolated from strawberry (Fragaria x ananassa Duchesne). Botrytis cinerea Pers.: Fr, was isolated from commercial grape (Vitis vinifera L.) and Fusarium oxysporum Schlechtend: Fr from orchid (Cynoches sp.). Phomopsis viticola (Sacc.) and P. obscurans (Ellis & Everh.) Sutton were from Mike A. Ellis, Ohio State University, Wooster, Ohio. Fungi were grown on potato-dextrose agar (PDA, Difco, Detroit, Mich.) in 9 cm petri dishes and incubated in a growth chamber at 24±2° C. and under cool-white fluorescent lights ([…]·m^−2·sec^−1 light) with 12 hour photoperiod.
(§2) Inoculum preparation. Conidia were harvested from 7-10 day-old cultures by flooding plates with 5 mL of sterile distilled water and dislodging conidia by softly brushing the colonies with an L-shaped glass rod. Conidial suspensions were filtered through sterile miracloth (Calbiochem-Novabiochem Corp., La Jolla, Calif.) to remove mycelia. Conidia concentrations were determined photometrically, from a standard curve based on the percent of transmittance (% T) at 625 nm and suspensions were then adjusted with sterile distilled water to a concentration of 1.0×10^6 conidia/mL.
(§3) Microtiter assay. A standardized 96-well microtiter plate assay developed for discovery of natural product fungicidal agents was used to evaluate naturally occurring antifungal agents from Macaranga monanara. A 96-well microtiter assay was used to determine sensitivity of B. cinerea, C. acutatum, C. fragariae, C. gloeosporioides, F. oxysporum, Phomopsis viticola, and P. obscurans to the various antifungal agents in comparison with known fungicidal standards. Vinclozolin, captan, and thiabendazole, which represent three different modes of action, were used as standards in this experiment. Each fungus was challenged in a dose-response format using test compounds where the final treatment concentrations were 0.3, 3.0 and 30.0 μM. Microtiter plates (Nunc MicroWell, untreated; Roskilde, Denmark) were covered with a plastic lid and incubated in a growth chamber as described previously for fungal growth. Growth was then evaluated by measuring absorbance of each well at 620 nm using a microplate photometer (Packard Spectra Count, Packard Instrument Co., Downers Grove, Ill.). Microtiter plates (Nunc MicroWell, untreated; Roskilde, Denmark) were covered with a plastic lid and incubated in a growth chamber at 24±1° C. and 12 hour photoperiod under 60±5 μmol light. Growth was then evaluated by measuring absorbance of each well at 620 nm using a microplate photometer (Packard Spectra Count, Packard Instrument Co., Downers Grove, Ill.).
(§4) Microbioassy Experimental Design. Chemical sensitivity each of B. cinerea, C. acutatum, C. fragariae, C. gloeosporiodes, F. oxysporum, Phomopsis viticola, and P. obscurans was evaluated using 96-well plate microbioassay format. Each chemical was evaluated in duplicate at each dose (0.3, 3.0 and 30.0 μM). […]

[2] = system: C. fragariae; format: cell-based, Colletotrichum fragariae; conditions: for inhibition at 0.3 µM / inhibition at 3 µM / inhibition at 30 µM: Colletotrichum fragariae, read-out: Percent inhibition−Percent Stimulation±SEM; for Percent inhibition−Percent Stimulation±SEM: C. fragariae
Description: as §1, §2, §3, §4

[3] = system: C. gloeosporioides; format: cell-based, Colletotrichum gloeosporioides; conditions: for inhibition at 0.3 µM / inhibition at 3 µM / inhibition at 30 µM: Colletotrichum gloeosporioides, read-out: Percent inhibition−Percent Stimulation±SEM; for Percent inhibition−Percent Stimulation±SEM: C. gloeosporioides
Description: as §1, §2, §3, §4

[4] = system: B. cinerea; format: cell-based, Botrytis cinerea; conditions: for inhibition at 0.3 µM / inhibition at 3 µM / inhibition at 30 µM: Botrytis cinerea, read-out: Percent inhibition−Percent Stimulation±SEM; for Percent inhibition−Percent Stimulation±SEM: B. cinerea
Description: as §1, §2, §3, §4

[5] = system: F. oxysporum; format: cell-based, Fusarium oxysporum; conditions: for inhibition at 0.3 µM / inhibition at 3 µM / inhibition at 30 µM: Fusarium oxysporum, read-out: Percent inhibition−Percent Stimulation±SEM; for Percent inhibition−Percent Stimulation±SEM: F. oxysporum
Description: as §1, §2, §3, §4

SMILES: Cc1cc(C2CC2)nc(Nc2ccccc2)n1 [Cyprodinil]
- inhibition at 0.3 µM ([1]; 48 h): 99.8 ± 0.2%
- inhibition at 3 µM ([1]; 48 h): 98.6 ± 0.6%
- inhibition at 30 µM ([1]; 48 h): 98.7 ± 0.5%
- inhibition at 0.3 µM ([1]; 72 h): 85.1 ± 4.3%
- inhibition at 3 µM ([1]; 72 h): 99.3 ± 2.2%
- inhibition at 30 µM ([1]; 72 h): 97.9 ± 0.3%
- inhibition at 0.3 µM ([2]; 48 h): 98 ± 1.6%
- inhibition at 3 µM ([2]; 48 h): 91.3 ± 1.3%
- inhibition at 30 µM ([2]; 48 h): 91.1 ± 7%
- inhibition at 0.3 µM ([2]; 72 h): 82.6 ± 6.2%
- inhibition at 3 µM ([2]; 72 h): 83.7 ± 1.8%
- inhibition at 30 µM ([2]; 72 h): 93 ± 0.4%
- inhibition at 0.3 µM ([3]; 48 h): 84.3 ± 2.3%
- inhibition at 3 µM ([3]; 48 h): 91.3 ± 1.3%
- inhibition at 30 µM ([3]; 48 h): 91.1 ± 7%
- inhibition at 0.3 µM ([3]; 72 h): 55.7 ± 4.6%
- inhibition at 3 µM ([3]; 72 h): 83.7 ± 1.8%
- inhibition at 30 µM ([3]; 72 h): 93 ± 0.4%
- inhibition at 0.3 µM ([4]; 48 h): 75.3 ± 21%
- inhibition at 3 µM ([4]; 48 h): 29.4 ± 31.3%
- inhibition at 30 µM ([4]; 48 h): 2.5 ± 31.6%
- inhibition at 0.3 µM ([4]; 72 h): 61.3 ± 24.4%
- inhibition at 3 µM ([4]; 72 h): 51.3 ± 30%
- inhibition at 30 µM ([4]; 72 h): 27.3 ± 28.2%
- inhibition at 0.3 µM ([5]; 48 h): -5.4 ± 4.8%
- inhibition at 3 µM ([5]; 48 h): 16.9 ± 5.5%
- inhibition at 30 µM ([5]; 48 h): 69.1 ± 4.6%
- inhibition at 0.3 µM ([5]; 72 h): -5.1 ± 2.8%
- inhibition at 3 µM ([5]; 72 h): 6.2 ± 2.5%
- inhibition at 30 µM ([5]; 72 h): 31.3 ± 4.9%

SMILES: N#CC(CCc1ccc(Cl)cc1)(Cn1cncn1)c1ccccc1 (stereo not drawn) [Fenbucanazole]
- Percent inhibition−Percent Stimulation±SEM ([1]; 0.3 μM, 48 hrs): 13.0 ± 5.8%
- Percent inhibition−Percent Stimulation±SEM ([1]; 0.3 μM, 72 hrs): 16.3 ± 5.4%
- Percent inhibition−Percent Stimulation±SEM ([1]; 3.0 μM, 48 hrs): −3.8 ± 4.8%
- Percent inhibition−Percent Stimulation±SEM ([1]; 3.0 μM, 72 hrs): −89.9 ± 6.8%
- Percent inhibition−Percent Stimulation±SEM ([1]; 30 μM, 48 hrs): −39.2 ± 3.3%
- Percent inhibition−Percent Stimulation±SEM ([1]; 30 μM, 72 hrs): −21.7 ± 5.8%
- Percent inhibition−Percent Stimulation±SEM ([2]; 0.3 μM, 48 hrs): −26.8 ± 14.1%
- Percent inhibition−Percent Stimulation±SEM ([2]; 0.3 μM, 72 hrs): 19.0 ± 7.7%
- Percent inhibition−Percent Stimulation±SEM ([2]; 3.0 μM, 48 hrs): −37.0 ± 15.3%
- Percent inhibition−Percent Stimulation±SEM ([2]; 3.0 μM, 72 hrs): 4.7 ± 4.2%
- Percent inhibition−Percent Stimulation±SEM ([2]; 30 μM, 48 hrs): −99.3 ± 1.1%
- Percent inhibition−Percent Stimulation±SEM ([2]; 30 μM, 72 hrs): −97.7 ± 0.6%
- Percent inhibition−Percent Stimulation±SEM ([3]; 0.3 μM, 48 hrs): −86.1 ± 1.4%
- Percent inhibition−Percent Stimulation±SEM ([3]; 0.3 μM, 72 hrs): −59.1 ± 3.6%
- Percent inhibition−Percent Stimulation±SEM ([3]; 3.0 μM, 48 hrs): −95.0 ± 1.1%
- Percent inhibition−Percent Stimulation±SEM ([3]; 3.0 μM, 72 hrs): −98.1 ± 0.4%
- Percent inhibition−Percent Stimulation±SEM ([3]; 30 μM, 48 hrs): −99.0 ± 0.7%
- Percent inhibition−Percent Stimulation±SEM ([3]; 30 μM, 72 hrs): −99.6 ± 0.2%
- Percent inhibition−Percent Stimulation±SEM ([4]; 0.3 μM, 48 hrs): −46.0 ± 34.2%
- Percent inhibition−Percent Stimulation±SEM ([4]; 0.3 μM, 72 hrs): −49.6 ± 24.7%
- Percent inhibition−Percent Stimulation±SEM ([4]; 3.0 μM, 48 hrs): −35.9 ± 28.3%
- Percent inhibition−Percent Stimulation±SEM ([4]; 3.0 μM, 72 hrs): −47.0 ± 23.0%
- Percent inhibition−Percent Stimulation±SEM ([4]; 30 μM, 48 hrs): 17.6 ± 52.2%
- Percent inhibition−Percent Stimulation±SEM ([4]; 30 μM, 72 hrs): −29.9 ± 24.2%
- Percent inhibition−Percent Stimulation±SEM ([5]; 0.3 μM, 48 hrs): −15.3 ± 2.6%
- Percent inhibition−Percent Stimulation±SEM ([5]; 0.3 μM, 72 hrs): −10.4 ± 2.7%
- Percent inhibition−Percent Stimulation±SEM ([5]; 3.0 μM, 48 hrs): −33.1 ± 4.2%
- Percent inhibition−Percent Stimulation±SEM ([5]; 3.0 μM, 72 hrs): −29.3 ± 2.6%
- Percent inhibition−Percent Stimulation±SEM ([5]; 30 μM, 48 hrs): −45.5 ± 3.4%
- Percent inhibition−Percent Stimulation±SEM ([5]; 30 μM, 72 hrs): −44.5 ± 2.5%

SMILES: CC1(C(=O)Nc2ccc(O)c(Cl)c2Cl)CCCCC1 [Fenhexamid]
- inhibition at 0.3 µM ([1]; 48 h): -21.6 ± 6.7%
- inhibition at 3 µM ([1]; 48 h): -6.5 ± 4.9%
- inhibition at 30 µM ([1]; 48 h): 13.8 ± 5.3%
- inhibition at 0.3 µM ([1]; 72 h): -20.4 ± 5.6%
- inhibition at 3 µM ([1]; 72 h): -21.8 ± 4.3%
- inhibition at 30 µM ([1]; 72 h): 1.5 ± 6.7%
- inhibition at 0.3 µM ([2]; 48 h): -30.2 ± 10%
- inhibition at 3 µM ([2]; 48 h): -13.6 ± 6.3%
- inhibition at 30 µM ([2]; 48 h): 19.9 ± 3.4%
- inhibition at 0.3 µM ([2]; 72 h): -12 ± 6.7%
- inhibition at 3 µM ([2]; 72 h): -9.9 ± 4.3%
- inhibition at 30 µM ([2]; 72 h): 19.5 ± 5.4%
- inhibition at 0.3 µM ([3]; 48 h): -21.6 ± 9%
- inhibition at 3 µM ([3]; 48 h): -32.5 ± 6.4%
- inhibition at 30 µM ([3]; 48 h): -0.3 ± 3%
- inhibition at 0.3 µM ([3]; 72 h): -11.3 ± 5.5%
- inhibition at 3 µM ([3]; 72 h): -16 ± 2%
- inhibition at 30 µM ([3]; 72 h): 6.5 ± 4.2%
- inhibition at 0.3 µM ([4]; 48 h): 82.9 ± 31.5%
- inhibition at 3 µM ([4]; 48 h): 34.2 ± 29.1%
- inhibition at 30 µM ([4]; 48 h): 49.2 ± 32.1%
- inhibition at 0.3 µM ([4]; 72 h): 71.4 ± 24.7%
- inhibition at 3 µM ([4]; 72 h): 42.7 ± 20.6%
- inhibition at 30 µM ([4]; 72 h): 40.9 ± 22.6%
- inhibition at 0.3 µM ([5]; 48 h): 3 ± 4.4%
- inhibition at 3 µM ([5]; 48 h): 15.3 ± 1.7%
- inhibition at 30 µM ([5]; 48 h): 28.5 ± 1.3%
- inhibition at 0.3 µM ([5]; 72 h): -0.1 ± 2.8%
- inhibition at 3 µM ([5]; 72 h): 3.7 ± 2.6%
- inhibition at 30 µM ([5]; 72 h): 21.2 ± 2.1%
